Experimental findings from patent US20170008921A1, “C-3 NOVEL TRITERPENONE WITH C-28 REVERSE AMIDE DERIVATIVES AS HIV INHIBITORS” (HETERO RESEARCH FOUNDATION, priority 2015, published 2017) are described below.

The nature of the data set: Cyto-toxicity (MTT assay). The format is cell-based. The protocol:
On day 1 calculate the number of cells required for the assay and seed 3×10^4 cells in 200 μl per well. Weigh the compound and dissolve it in DMSO to get 10 mM stock which is further diluted to 3 mM and 1 mM. […] Add DMSO to controls in a way to obtain final concentration of solvent that is not greater than 1%. Incubate for 4 days in 5% CO2 incubator at 37° C. On day 4, 100 μl of medium was removed from each well without disturbing the cells. Add 10 μl of MTT reagent and incubate for 4 hours at 5% CO2 incubator at 37° C. for formation of crystals. Add 200 μl of 0.1N acidic isopropanol to dissolve the crystals and read the plate at 590 nm. The values are mentioned in below Table-3 and Table-3A.

Each structure is given as a SMILES string. Structures can show the parent of a compound that is named as a salt. Where two headings read alike, the source gives them in different places.

`Cc1ccc(C(=O)NC2(C(=O)N[C@@]34CC[C@]5(C)[C@H](CC[C@@H]6[C@@]7(C)CC[C@H](OC(=O)[C@H]8C[C@@H](C(=O)O)C8(C)C)C(C)(C)[C@@H]7CC[C@]65C)C3=C(C(C)C)C(=O)C4)CCCCC2)cn1` [Example 49, (1R,3S)-3-((((3aR,5aR,5bR,7aR,9S,11aR,11bR,13aS)-1-isopropyl-5a,5b,8,8,11a-pentamethyl-3a-(1-(6-methylnicotinamido)cyclohexane-1-carboxamido)-2-oxo-3,3a,4,5,5a,5b,6,7,7a,8,9,10,11,11a,11b,12,13,13a-octadecahydro-2H-cyclopenta[a]chrysen-9-yl)oxy)carbonyl)-2,2-dimethylcyclobutane-1-carboxylic acid] returned a viability at 4 days, 0.01 µM of 56%; a viability at 4 days, 0.1 µM of 12%; a viability at 4 days, 1 µM of 4%.
In the same order, the values of `CC(C)C1=C2[C@H]3CC[C@@H]4[C@@]5(C)CC[C@H](OC(=O)[C@H]6C[C@@H](C(=O)O)C6(C)C)C(C)(C)[C@@H]5CC[C@@]4(C)[C@]3(C)CC[C@@]2(NC(=O)C(C)(C)NC(=O)c2ccco2)CC1=O` [Example 26, (1R,3S)-3-((((3aR,5aR,5bR,7aR,9S,11aR,11bR,13aS)-3a-(2-(furan-2-carboxamido)-2-methylpropanamido)-1-isopropyl-5a,5b,8,8,11a-pentamethyl-2-oxo-3,3a,4,5,5a,5b,6,7,7a,8,9,10,11,11a,11b,12,13,13a-octadecahydro-2H-cyclopenta[a]chrysen-9-yl)oxy)carbonyl)-2,2-dimethylcyclobutane-1-carboxylic acid] are 55%, 20% and 0%.
With `CC(C)C1=C2[C@H]3CC[C@@H]4[C@@]5(C)CC[C@H](OC(=O)[C@H]6C[C@@H](C(=O)O)C6(C)C)C(C)(C)[C@@H]5CC[C@@]4(C)[C@]3(C)CC[C@@]2(NC(=O)C(C)(C)NC(=O)C(C)(C)N)CC1=O` [Example 11, (1R,3S)-3-((((3aR,5aR,5bR,7aR,9S,11aR,11bR,13aS)-3a-(2-(2-amino-2-methylpropanamido)-2-methylpropanamido)-1-isopropyl-5a,5b,8,8,11a-pentamethyl-2-oxo-3,3a,4,5,5a,5b,6,7,7a,8,9,10,11,11a,11b,12,13,13a-octadecahydro-2H-cyclopenta[a]chrysen-9-yl)oxy)carbonyl)-2,2-dimethylcyclobutane-1-carboxylic acid hydrochloride], the viability at 4 days, 0.01 µM was found to be 41%; the viability at 4 days, 0.1 µM was 3%; the viability at 4 days, 1 µM is 1%.
In the same order, the values of `CC(C)C1=C2[C@H]3CC[C@@H]4[C@@]5(C)CC[C@H](OC(=O)[C@H]6C[C@@H](C(=O)O)C6(C)C)C(C)(C)[C@@H]5CC[C@@]4(C)[C@]3(C)CC[C@@]2(NC(=O)C(C)(C)NC(=O)c2ccc(Cl)cc2)CC1=O` [Example 1, (1R,3S)-3-((((3aR,5aR,5bR,7aR,9S,11aR,11bR,13aS)-3a-(2-(4-chlorobenzamido)-2-methylpropanamido)-1-isopropyl-5a,5b,8,8,11a-pentamethyl-2-oxo-3,3a,4,5,5a,5b,6,7,7a,8,9,10,11,11a,11b,12,13,13a-octadecahydro-2H-cyclopenta[a]chrysen-9-yl)oxy)carbonyl)-2,2-dimethylcyclobutane-1-carboxylic acid] are 57%, 10% and 4%.
`CC(C)C1=C2[C@H]3CC[C@@H]4[C@@]5(C)CC[C@H](OC(=O)[C@H]6C[C@@H](C(=O)O)C6(C)C)C(C)(C)[C@@H]5CC[C@@]4(C)[C@]3(C)CC[C@@]2(NC(=O)C(C)(C)NS(C)(=O)=O)CC1=O` [Example 63, sodium (1R,3S)-3-((((3aR,5aR,5bR,7aR,9S,11aR,11bR,13aS)-1-isopropyl-5a,5b,8,8,11a-pentamethyl-3a-(2-methyl-2-(methylsulfonamido)propanamido)-2-oxo-3,3a,4,5,5a,5b,6,7,7a,8,9,10,11,11a,11b,12,13,13a-octadecahydro-2H-cyclopenta[a]chrysen-9-yl)oxy)carbonyl)-2,2-dimethylcyclobutane-1-carboxylate] yielded a viability at 4 days, 0.01 µM of 51%; a viability at 4 days, 0.1 µM of 16%; a viability at 4 days, 1 µM of 0%.
The like results for `CC(C)C1=C2[C@H]3CC[C@@H]4[C@@]5(C)CC[C@H](OC(=O)[C@H]6C[C@@H](C(=O)O)C6(C)C)C(C)(C)[C@@H]5CC[C@@]4(C)[C@]3(C)CC[C@@]2(NC(=O)C(C)(C)NCC2(c3ccc(Cl)cc3)CC2)CC1=O` [Example 69, (1R,3S)-3-((((3aR,5aR,5bR,7aR,9S,11aR,11bR,13aS)-3a-(2-(((1-(4-chlorophenyl)cyclopropyl)methyl)amino)-2-methylpropanamido)-1-isopropyl-5a,5b,8,8, 11a-pentamethyl-2-oxo-3,3a,4,5,5a,5b,6,7,7a,8,9,10,11,11a,11b,12,13,13a-octadecahydro-2H-cyclopenta[a]chrysen-9-yl)oxy)carbonyl)-2,2-dimethylcyclobutane-1-carboxylic acid] were, in that order, 42%, 8% and 8%.
In the same order, the values of `CC(C)C1=C2[C@H]3CC[C@@H]4[C@@]5(C)CC[C@H](OC(=O)[C@H]6C[C@@H](C(=O)O)C6(C)C)C(C)(C)[C@@H]5CC[C@@]4(C)[C@]3(C)CC[C@@]2(NC(=O)C(C)(C)NCCN(C)C)CC1=O` [Example 73, (1R,3S)-3-((((3aR,5aR,5bR,7aR,9S,11aR,11bR,13aS)-3a-(2-((2-(dimethylamino)ethyl)amino)-2-methylpropanamido)-1-isopropyl-5a,5b,8,8,11a-pentamethyl-2-oxo-3,3a,4,5,5a,5b,6,7,7a,8,9,10,11,11a,11b,12,13,13a-octadecahydro-2H-cyclopenta[a]chrysen-9-yl)oxy)carbonyl)-2,2-dimethylcyclobutane-1-carboxylic acid] are 52%, 11% and 9%.
As for `CC(C)C1=C2[C@H]3CC[C@@H]4[C@@]5(C)CC[C@H](OC(=O)[C@H]6C[C@@H](C(=O)O)C6(C)C)C(C)(C)[C@@H]5CC[C@@]4(C)[C@]3(C)CC[C@@]2(NC(=O)C(C)(C)NC(=O)[C@H]2CCCNC2)CC1=O` [Example 52, (1R,3S)-3-((((3aR,5aR,5bR,7aR,9S,11aR,11bR,13aS)-1-isopropyl-5a,5b,8,8,11a-pentamethyl-3a-(2-methyl-2-((S)-piperidine-3-carboxamido)propan amido)-2-oxo-3,3a,4,5,5a,5b,6,7,7a,8,9,10,11,11a,11b,12,13,13a-octadecahydro-2H-cyclopenta[a]chrysen-9-yl)oxy)carbonyl)-2,2-dimethylcyclobutane-1-carboxylic acid hydrochloride], the viability at 4 days, 0.001 µM (0.001 μM, MTT, 4 days (Table 3A), read-out: Cytotoxicity % viability) was 83%. Under “0.003 μM, MTT, 4 days (Table 3A), read-out: Cytotoxicity % viability”, the viability at 4 days, 0.003 µM was 89%. For the same compound, under “0.01 μM, MTT, 4 days (Table 3A), read-out: Cytotoxicity % viability”, the viability at 4 days, 0.01 µM stood at 59%.
